From ChEMBL document CHEMBL1201862, “PubChem BioAssay data set” (2004)
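In this assay, cells in 96-well plates receive the compound at five concentrations for 48 hours. Endpoints are linearly interpolated between the surrounding concentrations. GI50 = concentration required for 50% inhibition of growth.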 Active and inactive are the calls of the source. Rule as the data show it: active = GI50 up to about 1.1 µM and inactive = higher.

Columns and labels:
Test in all cases: NCI tumour cell line growth inhibition, 48 h
A549 = tested on: A549
ACHN = tested on: ACHN
BT-549 = tested on: BT-549
HCT-15 = tested on: HCT-15
HOP-62 = tested on: HOP-62
HOP-92 = tested on: HOP-92
Hs-578T = tested on: Hs-578T
IGROV-1 = tested on: IGROV-1
KM12 = tested on: KM12
NCI-H522 = tested on: NCI-H522
OVCAR-5 = tested on: OVCAR-5
PC-3 = tested on: PC-3
SF-268 = tested on: SF-268
SK-MEL-28 = tested on: SK-MEL-28
SK-MEL-2 = tested on: SK-MEL-2
SK-MEL-5 = tested on: SK-MEL-5
SNB-75 = tested on: SNB-75
UO-31 = tested on: UO-31
RXF 393 = tested on: RXF 393

Compound	GI50 (A549)	GI50 (ACHN)	GI50 (BT-549)	GI50 (HCT-15)	GI50 (HOP-62)	GI50 (HOP-92)	GI50 (Hs-578T)	GI50 (IGROV-1)	GI50 (KM12)	GI50 (NCI-H522)	GI50 (OVCAR-5)	GI50 (PC-3)	GI50 (SF-268)	GI50 (SK-MEL-28)	GI50 (SK-MEL-2)	GI50 (SK-MEL-5)	GI50 (SNB-75)	GI50 (UO-31)	GI50 (RXF 393)
CCCC(=O)Nc1ncnc2c1ncn2C1OC2COP(=O)(O)OC2C1OC(=O)CCC (centres undefined)	> 100 µM (inactive)	> 100 µM (inactive)	> 1000 µM (inactive)	> 100 µM	> 100 µM (inactive)	> 1000 µM (inactive)	> 1000 µM (inactive)	22.5 µM (inactive)	> 100 µM (inactive)	> 100 µM (inactive)	> 100 µM (inactive)	> 100 µM (inactive)	> 100 µM (inactive)	> 100 µM (inactive)	> 100 µM (inactive)	> 100 µM (inactive)	0.0246 µM (active)	312 µM (inactive)	
OCCSCc1cc(Cl)cc(Cl)c1O	> 100 µM (inactive)	> 100 µM (inactive)	> 100 µM (inactive)	> 100 µM	> 100 µM (inactive)	57.9 µM (inactive)	> 100 µM (inactive)	> 100 µM (inactive)	> 100 µM (inactive)	> 100 µM (inactive)	> 100 µM (inactive)	> 100 µM (inactive)	> 100 µM (inactive)	> 100 µM (inactive)		> 100 µM (inactive)		> 100 µM (inactive)	> 100 µM (inactive)
O=C(Nc1ccccc1C(=O)Nc1nccs1)c1ccccc1	12.4 µM (inactive)	14.3 µM (inactive)	15.1 µM (inactive)	4.37 µM	16.6 µM (inactive)		23.9 µM (inactive)	35.8 µM (inactive)	6.03 µM (inactive)	14.3 µM (inactive)	> 100 µM (inactive)	2.45 µM (inactive)	14.6 µM (inactive)	20.7 µM (inactive)	5.22 µM (inactive)	4.55 µM (inactive)	21.1 µM (inactive)	7.89 µM (inactive)	
COc1nc2c(c(=O)n1C)N[C@@H]1[C@@H](O)[C@H](O)CO[C@@H]1N2	> 100 µM (inactive)		> 100 µM (inactive)	> 100 µM	> 100 µM (inactive)		> 100 µM (inactive)	> 100 µM (inactive)	> 100 µM (inactive)	38.2 µM (inactive)	> 100 µM (inactive)	> 100 µM (inactive)	> 100 µM (inactive)	> 100 µM (inactive)	> 100 µM (inactive)	> 100 µM (inactive)	> 100 µM (inactive)	> 100 µM (inactive)	> 100 µM (inactive)
CC(C)(C)N1C(=O)[N-]/[N+](=C(/C(c2ccccc2)=[N+]2/[N-]C(=O)N(C(C)(C)C)C2=O)c2ccccc2)C1=O	> 100 µM (inactive)	> 100 µM (inactive)	> 100 µM (inactive)	> 100 µM		> 100 µM (inactive)	> 100 µM (inactive)		> 100 µM (inactive)		> 100 µM (inactive)	> 100 µM (inactive)	> 100 µM (inactive)	> 100 µM (inactive)	> 100 µM (inactive)	> 100 µM (inactive)	> 100 µM (inactive)	> 100 µM (inactive)	> 100 µM (inactive)
CC(C)N(c1cc2c(cc1F)c(=O)c(C(=O)O)cn2-c1ccc(N2CCN(C)CC2)cn1)C(C)C	> 100 µM (inactive)		86.7 µM (inactive)	> 100 µM	> 100 µM (inactive)	> 100 µM (inactive)	> 100 µM (inactive)	> 100 µM (inactive)	> 100 µM (inactive)		> 100 µM (inactive)	> 100 µM (inactive)	> 100 µM (inactive)	> 100 µM (inactive)			> 100 µM (inactive)	> 100 µM (inactive)	> 100 µM (inactive)
COc1cc(Br)c(OC)c2c(OC)cc(C)cc12		> 100 µM (inactive)	96.6 µM (inactive)	> 100 µM	> 100 µM (inactive)		52 µM (inactive)	> 100 µM (inactive)	> 100 µM (inactive)	> 100 µM (inactive)	> 100 µM (inactive)	44.6 µM (inactive)	> 100 µM (inactive)	> 100 µM (inactive)	> 100 µM (inactive)		14.3 µM (inactive)	> 100 µM (inactive)	50.1 µM (inactive)
COC[C@H](Cc1ccccc1)/N=C/c1ccccc1	> 100 µM (inactive)	> 100 µM (inactive)	> 100 µM (inactive)	> 100 µM	> 100 µM (inactive)		> 100 µM (inactive)	> 100 µM (inactive)	> 100 µM (inactive)	> 100 µM (inactive)	> 100 µM (inactive)	> 100 µM (inactive)	> 100 µM (inactive)	> 100 µM (inactive)	> 100 µM (inactive)	> 100 µM (inactive)	> 100 µM (inactive)	> 100 µM (inactive)	> 100 µM (inactive)
O=[N+]([O-])c1cc(Cl)ccc1S(=O)(=O)c1cc(Cl)cc2c1NCCC2	52 µM (inactive)	40.9 µM (inactive)	56.9 µM (inactive)	60.7 µM	69.2 µM (inactive)	54.6 µM (inactive)	95.1 µM (inactive)	29.1 µM (inactive)	52.7 µM (inactive)		> 100 µM (inactive)	69.8 µM (inactive)	82.4 µM (inactive)	35.8 µM (inactive)	> 100 µM (inactive)	21.3 µM (inactive)	18.4 µM (inactive)	49.5 µM (inactive)	41.4 µM (inactive)
COc1cccc(C2c3cc4c(cc3OC(NNc3ccccc3)C2C)OCO4)c1OC (centres undefined)	3.58 µM (inactive)	1.65 µM (inactive)	7.28 µM (inactive)	2.18 µM	3.64 µM (inactive)		6.35 µM (inactive)	4.6 µM (inactive)	1.59 µM (inactive)	2.07 µM (inactive)	6.62 µM (inactive)	1.76 µM (inactive)	23.1 µM (inactive)	24.2 µM (inactive)	10.1 µM (inactive)	14 µM (inactive)	11.2 µM (inactive)	2.82 µM (inactive)	3.76 µM (inactive)
CC(C)(C)n1c(=O)n2n(c1=O)C1c3cccc4cccc(c34)C2C2c3cccc4cccc(c34)C1n1c(=O)n(C(C)(C)C)c(=O)n12	78.3 µM (inactive)	61.4 µM (inactive)	> 100 µM (inactive)	74.5 µM	67.3 µM (inactive)	> 100 µM (inactive)	64.3 µM (inactive)	21.7 µM (inactive)	> 100 µM (inactive)	36 µM (inactive)	> 100 µM (inactive)	59.8 µM (inactive)	53.8 µM (inactive)	> 100 µM (inactive)	37.5 µM (inactive)	> 100 µM (inactive)	10.8 µM (inactive)	> 100 µM (inactive)	
O=C(CNc1cccc([N+](=O)[O-])c1)Nn1c(-c2ccccc2)nc2ccccc2c1=O	1.74 µM (inactive)	1.4 µM (inactive)	1.87 µM (inactive)	0.419 µM	1.97 µM (inactive)		0.581 µM (active)	0.201 µM (active)	1.18 µM (inactive)	0.433 µM (active)	1.77 µM (inactive)	0.543 µM (active)	1.69 µM (inactive)	0.513 µM (active)		1.02 µM (active)		0.743 µM (active)	0.37 µM (active)
O=c1[nH]c2c(C(F)(F)F)c(Cl)c(-c3ccccc3)nc2o1	19.8 µM (inactive)	65.5 µM (inactive)	15.7 µM (inactive)	22.1 µM	35.4 µM (inactive)	9.33 µM (inactive)	55.6 µM (inactive)	41.8 µM (inactive)	26.7 µM (inactive)	32.1 µM (inactive)	11.8 µM (inactive)	23.2 µM (inactive)	54.7 µM (inactive)	22.8 µM (inactive)	18.5 µM (inactive)	4.83 µM (inactive)		12.5 µM (inactive)	21.5 µM (inactive)
N#Cc1sc2c(c1OC(=O)c1ccccc1)c(=O)n(-c1ccccc1)c(=S)n2-c1ccccc1	29.3 µM (inactive)		23.8 µM (inactive)	18.2 µM	18.2 µM (inactive)		14.8 µM (inactive)	22 µM (inactive)	19.5 µM (inactive)	13.8 µM (inactive)		19.5 µM (inactive)	33.5 µM (inactive)	25.7 µM (inactive)	28.6 µM (inactive)	15.2 µM (inactive)	> 10 µM (inactive)	18.3 µM (inactive)	14.3 µM (inactive)
CCCCC/C=C\C=C\CCCCCCCCC(=O)OC	> 100 µM (inactive)	> 100 µM (inactive)	> 100 µM (inactive)	> 100 µM	> 100 µM (inactive)	> 100 µM (inactive)	> 100 µM (inactive)	> 100 µM (inactive)	> 100 µM (inactive)		> 100 µM (inactive)	> 100 µM (inactive)	> 100 µM (inactive)	> 100 µM (inactive)	> 100 µM (inactive)	24 µM (inactive)	> 100 µM (inactive)	13.9 µM (inactive)	> 100 µM (inactive)
COC(=O)Nc1nc2ccccc2[nH]1 [CARBENDAZIM]	6.97 µM (inactive)	> 56.1 µM (inactive)	10.1 µM (inactive)	3.37 µM	11.1 µM (inactive)	> 100 µM (inactive)	12.9 µM (inactive)	8.17 µM (inactive)	4.26 µM (inactive)		49.4 µM (inactive)	15.3 µM (inactive)	> 51.3 µM (inactive)	16.2 µM (inactive)	17.8 µM (inactive)	6.03 µM (inactive)	9.38 µM (inactive)	20.7 µM (inactive)	17.5 µM (inactive)
